Test results reported in patent US9233965B2, “3,4-dihydropyrrolo[1,2-A]pyrazine-2,8(1H)-dicarboxamide derivatives, preparation thereof and therapeutic use thereof for diseases involving casein kinase 1 epsilon and/or casein kinase 1 delta” (SANOFI, priority 2010, dated 2016).

Columns and labels:
[1] = target: casein kinase 1 epsilon (CK1 epsilon) (Homo sapiens (Human), UniProt P49674); assay: Test A: inhibitory activity on CK1 epsilon, casein phosphorylation assay on ATP-33P filter plate; type: biochemical; conditions: IC50 values or IC50 ranges (result of several experiments), ATP 10 μM final
How it was run: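 Human CK1 epsilon (3 ng/μL final) phosphorylates dephosphorylated casein (0.2 μg/μL) with ATP-33P plus 10 μM cold ATP (KM for ATP 21 μM), 2 h at room temperature, pH 7.5 Tris buffer. TCA-precipitated protein counted by scintillation; compounds at 10 to 0.001 μM give IC50 values or % inhibition at 10 μM.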

Chain of casein kinase 1 epsilon (CK1 epsilon) (P49674 whole entry): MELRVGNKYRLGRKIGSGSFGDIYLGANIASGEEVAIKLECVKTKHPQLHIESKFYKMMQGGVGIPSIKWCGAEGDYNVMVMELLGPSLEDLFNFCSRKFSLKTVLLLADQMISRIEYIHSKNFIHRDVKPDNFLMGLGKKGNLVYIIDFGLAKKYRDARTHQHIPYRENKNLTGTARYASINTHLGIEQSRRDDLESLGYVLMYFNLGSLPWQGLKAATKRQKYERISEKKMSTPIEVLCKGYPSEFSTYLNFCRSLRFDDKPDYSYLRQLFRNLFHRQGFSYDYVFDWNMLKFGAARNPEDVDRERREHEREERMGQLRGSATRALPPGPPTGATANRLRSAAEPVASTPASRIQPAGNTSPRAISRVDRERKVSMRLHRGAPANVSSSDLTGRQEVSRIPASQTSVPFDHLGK

| IC50 [1] | melting point | Structure (SMILES) |
| --- | --- | --- |
| 2 nM | 176 to 178 °C | C[C@H](NC(=O)N1CCn2c(C#N)c(-c3cccc(F)c3)c(C(N)=O)c2C1)C(F)(F)F [Compound 106, 6-cyano-7-(3-fluorophenyl)-N^2-((2S)-1,1,1-trifluoropropan-2-yl)-3,4-dihydropyrrolo[1,2-a]pyrazine-2,8(1H)-dicarboxamide] |
| 3 nM | 190 to 193 °C | C[C@H](NC(=O)N1CCn2c(Cl)c(-c3cccc(F)c3)c(C(N)=O)c2C1)C(F)(F)F [Compound 78, 6-chloro-7-(3-fluorophenyl)-N^2-[(2S)-1,1,1-trifluoropropan-2-yl]-3,4-dihydropyrrolo[1,2-a]pyrazine-2,8(1H)-dicarboxamide] |
| 21 to 28 nM | 227 to 229 °C | NC(=O)c1c(-c2ccccc2)c(Cl)n2c1CN(C(=O)NC1CCOCC1)CC2 [Compound 93, 6-chloro-7-phenyl-N^2-(tetrahydro-2H-pyran-4-yl)-3,4-dihydropyrrolo[1,2-a]pyrazine-2,8(1H)-dicarboxamide] |
| 4 nM | 141 to 143 °C | CC1(C)CC(NC(=O)N2CCn3c(Cl)c(-c4cccc(F)c4)c(C(N)=O)c3C2)CCO1 (stereo not drawn) [Compound 99, 6-chloro-7-(3-fluorophenyl)-N^2-(2,2-dimethyl-tetrahydro-2H-pyran-4-yl)-3,4-dihydropyrrolo[1,2-a]pyrazine-2,8(1H)-dicarboxamide] |
| 2 to 18 nM | 231 to 234 °C | Cc1cccc(-c2c(C(N)=O)c3n(c2Cl)CCN(C(=O)NC2CCOCC2)C3)c1 [Compound 94, 6-chloro-7-(3-methylphenyl)-N^2-(tetrahydro-2H-pyran-4-yl)-3,4-dihydropyrrolo[1,2-a]pyrazine-2,8(1H)-dicarboxamide] |
| 2 to 16 nM | 223 to 225 °C | NC(=O)c1c(-c2cccc(F)c2)c(Cl)n2c1CN(C(=O)NC1CCOCC1)CC2 [Compound 98, 6-chloro-7-(3-fluorophenyl)-N^2-(tetrahydro-2H-pyran-4-yl)-3,4-dihydropyrrolo[1,2-a]pyrazine-2,8(1H)-dicarboxamide] |
| 6 to 7 nM | 184 to 186 °C | NC(=O)c1c(-c2cccc(F)c2)c(Cl)n2c1CN(C(=O)NC1COC1)CC2 [Compound 90, 6-chloro-7-(3-fluorophenyl)-N^2-(oxetan-3-yl)-3,4-dihydropyrrolo[1,2-a]pyrazine-2,8(1H)-dicarboxamide] |
| 10 to 27 nM | 210 to 213 °C | NC(=O)c1c(-c2ccccc2)c(Cl)n2c1CN(C(=O)NCC(F)(F)F)CC2 [Compound 76, 6-chloro-7-phenyl-N^2-(2,2,2-trifluoroethyl)-3,4-dihydropyrrolo[1,2-a]pyrazine-2,8(1H)-dicarboxamide] |
| 4 nM | 249 to 253 °C | CC1(CNC(=O)N2CCn3c(Cl)c(-c4cccc(F)c4)c(C(N)=O)c3C2)COC1 [Compound 91, 6-chloro-7-(3-fluorophenyl)-N^2-(3-methyl-oxetan-3-ylmethyl)-3,4-dihydropyrrolo[1,2-a]pyrazine-2,8(1H)-dicarboxamide] |
